Reference: ChEMBL document CHEMBL5252571, “Substitution to hydrophobic linker and formation of host-guest complex enhanced the effect of synthetic transcription factor made of pyrrole-imidazole polyamide” (Bioorg Med Chem, 2023)
Activity calls are given as the source filed them. No cut-off for these calls is given here.

Legend:
GM15850 [1] = assay: Protective activity against human GM15850 cells derived from Friedreich's ataxia patient assessed as decrease in cytotoxicity at 1 uM incubated for 48 hrs in presence of 1 mM 2-hydroxypropyl-beta-cyclodextrin adjuvant by cell count reagent SF based colorimetric assay; type: functional
GM15850 [2] = assay: Induction of FRDA expression in human GM15850 cells derived from Friedreich's ataxia patient assessed as increase in FXN transcription at 100 to 1000 nM incubated for 24 hrs in presence of 1.0 to 2.5 mM 2-hydroxypropyl-beta-cyclodextrin adjuvant by RT-PCR analysis; type: functional, cell-based; settings: dose 100-1000 nM
GM15850 [3] = assay: Induction of FRDA expression in human GM15850 cells derived from Friedreich's ataxia patient assessed as increase in FXN transcription at 100 to 300 nM incubated for 24 hrs by RT-PCR analysis; type: functional, cell-based; settings: dose 100-300 nM
GM15850 [4] = assay: Protective activity against human GM15850 cells derived from Friedreich's ataxia patient assessed as decrease in cytotoxicity at 1 uM incubated for 48 hrs in presence of 0.2 to 10 mM 2-hydroxypropyl-beta-cyclodextrin adjuvant by cell count reagent SF based colorimetric assay; type: functional
GM15850 [5] = assay: Cytotoxicity against human GM15850 cells derived from Friedreich's ataxia patient assessed as decrease in cell viability at >300 nM incubated for 48 hrs by cell count reagent SF based colorimetric assay; type: toxicity; settings: gm15850, 48 h, 0.3 µM
GM15850 [6] = assay: Induction of FRDA expression in human GM15850 cells derived from Friedreich's ataxia patient assessed as increase in FXN transcription at >300 nM incubated for 24 hrs by RT-PCR analysis; type: functional, cell-based
[7] = Aqueous solubility of compound incubated for 20 mins by HPLC analysis; type: physicochemical; settings: buffer
GM15850 [8] = assay: Induction of FRDA expression in human GM15850 cells derived from Friedreich's ataxia patient assessed as increase in FXN transcription incubated for 24 hrs by RT-PCR analysis; type: functional, cell-based

| SMILES | Activity (GM15850 [1]) | Activity (GM15850 [2]) | Activity (GM15850 [3]) | Activity (GM15850 [4]) | Activity (GM15850 [5]) | Activity (GM15850 [6]) | solubility [7] | Activity (GM15850 [8]) |
| --- | --- | --- | --- | --- | --- | --- | --- | --- |
| Cc1sc2c(c1C)C(c1ccc(Cl)cc1)=N[C@@H](CC(=O)NCCOCCOCCOCCOCCOCCOCCC(=O)NCCCCCCCNC(=O)CCNC(=O)c1nc(NC(=O)CCNC(=O)c3cc(NC(=O)c4nc(NC(=O)CCNC(=O)c5cc(NC(=O)c6nccn6C)cn5C)cn4C)cn3C)cn1C)c1nnc(C)n1-2 | Active | inactive | Active | inactive | Toxic | inactive | Soluble | – |
| Cc1sc2c(c1C)C(c1ccc(Cl)cc1)=N[C@@H](CC(=O)NCCOCCOCCOCCOCCOCCOCCC(=O)NCCCN(C)CCCNC(=O)CCNC(=O)c1nc(NC(=O)CCNC(=O)c3cc(NC(=O)c4nc(NC(=O)CCNC(=O)c5cc(NC(=O)c6nccn6C)cn5C)cn4C)cn3C)cn1C)c1nnc(C)n1-2 | – | – | Active | – | – | – | Soluble | Active |
| Cc1sc2c(c1C)C(c1ccc(Cl)cc1)=N[C@@H](CC(=O)NCCOCCOCCOCCOCCOCCOCCC(=O)NCCCN(C)CCCNC(=O)CCNC(=O)c1nc(NC(=O)CCNC(=O)c3cc(NC(=O)c4nc(NC(=O)CCNC(=O)c5cc(NC(=O)c6nc(NC(=O)CCCN(C)C)cn6C)cn5C)cn4C)cn3C)cn1C)c1nnc(C)n1-2 | – | – | – | – | – | – | – | inactive |
| Cc1sc2c(c1C)C(c1ccc(Cl)cc1)=N[C@@H](CC(=O)NCCOCCOCCOCCOCCOCCOCCC(=O)NCCCCCCCNC(=O)CCNC(=O)c1nc(NC(=O)CCNC(=O)c3cc(NC(=O)c4nc(NC(=O)CCNC(=O)c5cc(NC(=O)c6nc(NC(=O)CCCN(C)C)cn6C)cn5C)cn4C)cn3C)cn1C)c1nnc(C)n1-2 | – | – | – | – | – | – | – | inactive |
